Patent US20260306640A1, “TECHNOLOGIES TARGETING CELL STATES” (Auron Therapeutics, Inc., priority 2023, published 2026)

What was measured:
Type in all cases: cell-based
KAT2B [1] = molecular target: T1, KAT2B (Homo sapiens, UniProt Q92831); experiment: KAT2B reduction in LASCPC-01 cells; design: degrader, Western blot
Protocol: MOLM-13 cells or NCI-H1048 cells were washed with PBS, then lysed with RIPA buffer containing 1×protease and phosphatase inhibitors (SantaCruz Biotechnologies Cat #sc-24948A). Protein was isolated by centrifugation at 12,000×g for 10 minutes at 4° C. and supernatant was collected. Protein was quantified via Bradford assay. Samples were diluted to 4 μg lysate in 16 μL RIPA buffer and then 4 μL of Jess Sample Buffer. Samples were heated at 95° C. for 5 minutes. Samples were loaded onto 12-230 kDa Jess™ Separation Module, 8×25 capillary cartridges (SM-W004, Biotechne). Antibodies loaded were: Primary antibody for KAT2A (GCN5L2 (C26A10) Rabbit mAb (3305, CST)) and for KAT2B (PCAF (C14G9)) Rabbit mAb (3378, CST) at 1:1000 and Anti-Rabbit Detection Module for Jess™ (Cat No #DM-001, Biotechne). Signal was detected by chemiluminescence.
In some embodiments, assessment was performed in LASCPC-01 cells, and reduction of KAT2A and KAT2B levels, including in some cases selectivity for one over the other, was confirmed. In some embodiments, DC50 and/or DC90 were assessed. In some embodiments, DC50 for various compounds was about or no more than about 1 nM. In some embodiments, DC90 for various compounds was about or no more than about 1 nM. In some embodiments, selectivity for the same polypeptide by a compound was observed across multiple types of cells (e.g., when assessed using DC50 and/or DC90). In some embodiments, certain compounds can provide improved properties and/or activities (e.g., potency). Data from certain assessments for certain compounds are presented below as examples (NT: not tested). It has been confirmed that various compounds described herein, including multiple compounds in Table 1, can be deemed to provide further improved properties and/or activities compared to the compound(s) in the table below for certain contexts, aspects, and/or uses.

NCI-H1048 cells = experiment: Cell growth inhibition (cell count, 8 days), small cell lung cancer NCI-H1048 cells; settings: Homo sapiens, 192 h, cell count relative to DMSO control after 8 days, FIG. 1 (C)
Protocol: FIG. 1. Provided compounds can provide various activities including inhibiting tumor growth in vivo. (A): Provided compounds can inhibit tumor growth in vivo. Nude Balb/c mice were inoculated with NCI-H1048 cells in Matrigel. Tumors were allowed to grow up to about 200 mm^3 and mice were then randomized into two groups. Mice were dosed intraperitoneally (i.p.) once per week with vehicle or 30 mg/kg compound 22. Tumor size was measured every three to four days and mice were sacrificed once vehicle tumors reached 2000 mm^3. Error bar is SEM. Dosing started at day 17 post tumor inoculation. (B): Provided technologies can reduce KAT2A and KAT2B levels and histone acetylation levels. […] Vehicle is DMSO. […] Cell count data relative to DMSO control after 8 days of treatment with compound 22 are presented as examples to confirm inhibition. GI50=6 nM. (D): Provided technologies can inhibit tumor growth in vivo. Nude balb/c mice inoculated with H1048 tumors were dosed intraperitoneally once per week (qw i.p.) with vehicle (HbCD) or compound 22. Average tumor volumes+/−SEM from 6 mice are represented. […] See also (A). […] Certain body weights relative to starting weight are presented as examples to confirm tolerability and safety. (F): Provided technologies can reduce KAT2A and KAT2B levels and histone acetylation levels in tumor in vivo. […]

[2] = system: NEPC primary patient organoid; experiment: Cell viability of NEPC primary patient organoid, 21 days; settings: Homo sapiens, 504 h, cell viability relative to DMSO control after 21 days, FIG. 3 (E)
Protocol: (§1) FIG. 3. Provided compounds can provide various activities. (A): Provided technologies can reduce KAT2A and KAT2B levels and histone acetylation levels. […] Cell viability (Cell Titer Glo) data relative to DMSO control after 7 days of treatment with compound 22 are presented as examples to confirm inhibition. GI50=5 nM. (C): Provided technologies can modulate cell states and induce differentiation. […] (D): Provided technologies can reduce KAT2A and KAT2B levels and histone acetylation levels including in neuroendocrine prostate cancer primary patient organoid. […] Concentrations are nM. […] Cell viability data relative to DMSO control after 21 days of treatment with compound 22 are presented as examples to confirm inhibition. GI50=3 nM. (F): Provided technologies can modulate cell states and induce differentiation.

KAT2B [3] = molecular target: T1, KAT2B; experiment: Western blot of KAT2B level in acute myeloid leukemia MOLM-13 cells, 48 h; design: degrader, Western blot; settings: FIG. 2 (A)
Protocol: FIG. 2. Provided compounds can provide various activities. (A): Provided technologies can reduce KAT2A and KAT2B levels and histone acetylation levels. […] Cell count data after 8 days of treatment with compound 22 relative to DMSO control are presented as examples to confirm inhibition. […] (C): Provided technologies can modulate cell states and induce differentiation. […] EC50=0.3 nM.

LASCPC-01 cells = experiment: Cell viability (Cell Titer Glo, 7 days), LASCPC-01 cells; settings: 168 h, Cell Titer Glo relative to DMSO control after 7 days, FIG. 3 (B)
Protocol: as §1

T1 sequence (Q92831 whole entry): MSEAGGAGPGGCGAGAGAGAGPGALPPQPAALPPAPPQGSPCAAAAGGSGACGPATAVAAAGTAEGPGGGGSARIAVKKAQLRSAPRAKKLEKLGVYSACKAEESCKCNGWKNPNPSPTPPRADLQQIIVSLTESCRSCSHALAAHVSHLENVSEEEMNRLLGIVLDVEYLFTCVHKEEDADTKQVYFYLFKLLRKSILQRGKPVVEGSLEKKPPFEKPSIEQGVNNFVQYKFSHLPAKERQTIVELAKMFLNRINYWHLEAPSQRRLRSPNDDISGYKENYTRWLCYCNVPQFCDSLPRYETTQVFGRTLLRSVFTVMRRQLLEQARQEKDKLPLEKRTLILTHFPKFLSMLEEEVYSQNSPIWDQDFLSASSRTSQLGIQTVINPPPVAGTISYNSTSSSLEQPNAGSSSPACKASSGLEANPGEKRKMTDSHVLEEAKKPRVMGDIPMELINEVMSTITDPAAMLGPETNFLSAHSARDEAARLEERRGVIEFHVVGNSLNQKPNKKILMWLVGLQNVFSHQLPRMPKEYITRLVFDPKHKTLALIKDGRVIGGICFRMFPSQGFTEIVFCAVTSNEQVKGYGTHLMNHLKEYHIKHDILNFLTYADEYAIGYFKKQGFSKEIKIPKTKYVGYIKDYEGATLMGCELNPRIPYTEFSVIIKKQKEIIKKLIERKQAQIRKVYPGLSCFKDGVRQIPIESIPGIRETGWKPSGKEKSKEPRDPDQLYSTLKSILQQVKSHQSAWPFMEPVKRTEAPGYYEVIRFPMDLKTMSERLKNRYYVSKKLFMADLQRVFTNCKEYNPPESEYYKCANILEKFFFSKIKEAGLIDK

DC50 (KAT2B [1]; LASCPC-01, KAT2B): 0.16 nM
EC90 (KAT2B [1]; LASCPC-01, KAT2B, read-out: DC90 (the source's name)): 0.42 nM
KAT2B levels (KAT2B [1]; LASCPC-01 cells, FIG. 3): potently reduce KAT2A and KAT2B levels
GI50 (NCI-H1048 cells): 6 nM
reduction of KAT2B level (KAT2B [3]): confirm such reduction
Compound: CN1C[C@H](Nc2cnn(C)c(=O)c2Br)C[C@H](c2ccc(C(=O)N3CCC(CN4CCN(c5ccc6c(c5)CN(C5CCC(=O)NC5=O)C6=O)CC4)CC3)cc2)C1 (stereo partly drawn) [Compound 22, 3-(5-(4-((1-(4-((3R,5R)-5-((5-bromo-1-methyl-6-oxo-1,6-dihydropyridazin-4-yl)amino)-1-methylpiperidin-3-yl)benzoyl)piperidin-4-yl)methyl)piperazin-1-yl)-1-oxoisoindolin-2-yl)piperidine-2,6-dione]
GI50 [2]: 3 nM
GI50 (LASCPC-01 cells): 5 nM
